Consider 27 compounds from patent US9603834B2, “1,2- bis-sulfonamide derivatives as chemokine receptor modulators” (Allergan, Inc., priority 2010, dated 2017).

The target of this experiment is CCR2 (Homo sapiens (Human), UniProt P41597). The experiment is described as follows: Calcium activity on FLIPR Tetra in HEK-Gqi5 cells stably expressing CCR2. It is filed as cell-based. The note with it: FLIPR Tetra calcium assay. The method, then: HEK-Gqi5 cells stably expressing CCR2 were cultured in (DMEM high glucose, 10% FBS, 1% PSA, 400 μg/ml geneticin and 50 μg/ml hygromycin. Appropriate positive control chemokines (MCP-1, MIP1A or RANTES) was used as the positive control agonist for screening compound-induced calcium activity assayed on the FLIPR^Tetra. The drug plates were prepared in 384-well microplates using the EP3 and the MultiPROBE robotic liquid handling systems. Compounds were synthesized and tested for CCR2 activity.

Usually pIC50 stands for the IC50 on a negative log10 scale, so that one unit is a factor of ten.

Each structure is given as a SMILES string. pIC50: −log10 of the molar value.

Chain of CCR2 (P41597 whole entry, species assumed): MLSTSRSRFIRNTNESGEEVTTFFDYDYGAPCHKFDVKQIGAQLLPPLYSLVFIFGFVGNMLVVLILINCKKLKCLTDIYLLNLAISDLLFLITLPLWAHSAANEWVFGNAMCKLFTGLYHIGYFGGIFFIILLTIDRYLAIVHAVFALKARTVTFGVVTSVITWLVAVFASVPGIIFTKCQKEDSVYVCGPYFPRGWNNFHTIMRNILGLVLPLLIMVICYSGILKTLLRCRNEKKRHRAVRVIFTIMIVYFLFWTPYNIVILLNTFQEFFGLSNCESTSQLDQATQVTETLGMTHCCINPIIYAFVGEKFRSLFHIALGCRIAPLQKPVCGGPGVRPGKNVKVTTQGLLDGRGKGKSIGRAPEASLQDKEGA

On to `Cn1ccc(S(=O)(=O)Nc2ccc(Cl)cc2NS(=O)(=O)c2cc3ccccc3o2)n1` [N-{2-[(1-benzofuran-2-ylsulfonyl)amino]-4-chlorophenyl}-1-methyl-1H-pyrazole-3-sulfonamide], for which the “CCR2 % Antagonism” value is reported as 96% and the pIC50 is 6.73.
For `O=S(=O)(Nc1cc(Cl)ccc1NS(=O)(=O)c1c(F)cccc1F)c1cc2ccccc2o1` [N-(5-chloro-2-{[(2,6-difluorophenyl)sulfonyl]amino}phenyl)-1-benzofuran-2-sulfonamide] the same measures were 99% and 6.82.
`O=S(=O)(Nc1ccc(Cl)cc1NS(=O)(=O)c1cccs1)c1cc2ccccc2o1` [N-{4-chloro-2-[(2-thienylsulfonyl)amino]phenyl}-1-benzofuran-2-sulfonamide]: the “CCR2 % Antagonism” value is on record as 90% and the pIC50 was 6.84.
For `O=S(=O)(Nc1cc(Cl)c(Cl)cc1NS(=O)(=O)c1cccc(Cl)c1F)c1cccs1` [N-(4,5-dichloro-2-{[(3-chloro-2-fluorophenyl)sulfonyl]amino}phenyl)thiophene-2-sulfonamide] the same measures were 96% and 6.66.
For `O=S(=O)(Nc1cc(Cl)c(Cl)cc1NS(=O)(=O)c1cccs1)c1cccc(C(F)(F)F)c1` [N-[4,5-dichloro-2-({[3-(trifluoromethyl)phenyl]sulfonyl}amino)phenyl]thiophene-2-sulfonamide] the same measures were 88% and 6.51.
For `Cc1ccc(S(=O)(=O)Nc2ccc(Cl)cc2NS(=O)(=O)c2cc3ccccc3o2)s1` [N-(5-chloro-2-{[(5-methyl-2-thienyl)sulfonyl]amino}phenyl)-1-benzofuran-2-sulfonamide] the same measures were 96% and 6.47.
As to `Cc1ccc(S(=O)(=O)Nc2cc(Cl)c(Cl)cc2NS(=O)(=O)c2cccs2)o1` [N-{4,5-dichloro-2-[(2-thienylsulfonyl)amino]phenyl}-5-methylfuran-2-sulfonamide], the “CCR2 % Antagonism” value is reported as 95% and the pIC50 is 6.51.
Turning to `O=S(=O)(Nc1cccnc1NS(=O)(=O)c1cccs1)c1ccc(Cl)c(C(F)(F)F)c1` [N-[3-({[4-chloro-3-(trifluoromethyl)phenyl]sulfonyl}amino)pyridin-2-yl]thiophene-2-sulfonamide], the “CCR2 % Antagonism” value is 85% and the pIC50 is 6.46.
With `COC(=O)c1sccc1S(=O)(=O)Nc1ccc(Cl)cc1NS(=O)(=O)c1cc2ccccc2o1` [methyl 3-[({2-[(1-benzofuran-2-ylsulfonyl)amino]-4-chlorophenyl}amino)sulfonyl]thiophene-2-carboxylate], the “CCR2 % Antagonism” value is on record as 96% and the pIC50 is 6.61.
Regarding `O=S(=O)(Nc1cc(Cl)ccc1NS(=O)(=O)c1cccs1)c1cc2ccccc2o1` [N-{5-chloro-2-[(2-thienylsulfonyl)amino]phenyl}-1-benzofuran-2-sulfonamide], the “CCR2 % Antagonism” value came to 86% and the pIC50 is 7.70.
`Cc1n[nH]c(C)c1S(=O)(=O)Nc1ccc(Cl)cc1NS(=O)(=O)c1cc2ccccc2o1` [N-{2-[(1-benzofuran-2-ylsulfonyl)amino]-4-chlorophenyl}-3,5-dimethyl-1H-pyrazole-4-sulfonamide]: the “CCR2 % Antagonism” value was found to be 108% and the pIC50 is 6.74.
For `O=S(=O)(Nc1cc(Cl)c(Cl)cc1NS(=O)(=O)c1cccs1)c1ccc(F)cc1` [N-(4,5-dichloro-2-{[(4-fluorophenyl)sulfonyl]amino}phenyl)thiophene-2-sulfonamide], the “CCR2 % Antagonism” value amounted to 91% and the pIC50 is 6.36.
The corresponding values for `Cn1cnc(S(=O)(=O)Nc2ccc(Cl)cc2NS(=O)(=O)c2cc3ccccc3o2)c1` [N-{2-[(1-benzofuran-2-ylsulfonyl)amino]-4-chlorophenyl}-1-methyl-1H-imidazole-4-sulfonamide] are 110% and 6.37.
For `O=S(=O)(Nc1cc(Cl)c(Cl)cc1NS(=O)(=O)c1cc2ccccc2s1)c1cccs1` [N-{4,5-dichloro-2-[(2-thienylsulfonyl)amino]phenyl}-1-benzothiophene-2-sulfonamide] the same measures were 94% and 6.31.
As to `O=S(=O)(Nc1cc(Cl)c(Cl)cc1NS(=O)(=O)c1cccs1)c1ccc(F)c(C(F)(F)F)c1` [N-[4,5-dichloro-2-({[4-fluoro-3-(trifluoromethyl)phenyl]sulfonyl}amino)phenyl]thiophene-2-sulfonamide], the “CCR2 % Antagonism” value is listed as 89% and the pIC50 is 6.36.
For the compound `Cc1nn(C)c(Cl)c1S(=O)(=O)Nc1ccc(Cl)cc1NS(=O)(=O)c1cc2ccccc2o1` [N-{2-[(1-benzofuran-2-ylsulfonyl)amino]-4-chlorophenyl}-5-chloro-1,3-dimethyl-1H-pyrazole-4-sulfonamide], the “CCR2 % Antagonism” value amounted to 80% and the pIC50 was 6.53.
For `O=S(=O)(Nc1cc(Cl)c(Cl)cc1NS(=O)(=O)c1cccs1)c1ccc(Cl)nc1` [6-chloro-N-{4,5-dichloro-2-[(2-thienylsulfonyl)amino]phenyl}pyridine-3-sulfonamide] the same measures were 100% and 6.55.
As for `O=S(=O)(Nc1cc(Cl)ccc1NS(=O)(=O)c1c(Cl)cccc1Cl)c1cc2ccccc2o1` [N-(5-chloro-2-{[(2,6-dichlorophenyl)sulfonyl]amino}phenyl)-1-benzofuran-2-sulfonamide], the “CCR2 % Antagonism” value is recorded as 89% and the pIC50 was 6.32.
In the case of `O=S(=O)(Nc1cc(Cl)c(Cl)cc1NS(=O)(=O)c1ccc(Cl)s1)c1cccs1` [5-chloro-N-{4,5-dichloro-2-[(2-thienylsulfonyl)amino]phenyl}thiophene-2-sulfonamide], the “CCR2 % Antagonism” value is on record as 89% and the pIC50 is 6.58.
For the compound `O=S(=O)(Nc1cc(Cl)c(Cl)cc1NS(=O)(=O)c1ccc(Cl)cc1F)c1cccs1` [N-(4,5-dichloro-2-{[(4-chloro-2-fluorophenyl)sulfonyl]amino}phenyl)thiophene-2-sulfonamide], the “CCR2 % Antagonism” value is 94% and the pIC50 is 6.44.
The corresponding values for `O=S(=O)(Nc1cc(Cl)c(Cl)cc1NS(=O)(=O)c1cccs1)c1cc2ccccc2o1` [N-{4,5-dichloro-2-[(2-thienylsulfonyl)amino]phenyl}-1-benzofuran-2-sulfonamide] are 100% and 7.02.
The corresponding values for `O=S(=O)(Nc1cc(Cl)c(Cl)cc1NS(=O)(=O)c1cc(Cl)cc(Cl)c1O)c1cccs1` [N-(4,5-dichloro-2-{[(3,5-dichloro-2-hydroxyphenyl)sulfonyl]amino}phenyl)thiophene-2-sulfonamide] are 82% and 6.32.
For `O=S(=O)(Nc1cc(Cl)c(Cl)cc1NS(=O)(=O)c1ccccc1F)c1cccs1` [N-(4,5-dichloro-2-{[(2-fluorophenyl)sulfonyl]amino}phenyl)thiophene-2-sulfonamide] the same measures were 67% and 6.40.
`O=S(=O)(Nc1cc(Cl)c(Cl)cc1NS(=O)(=O)c1cccs1)c1cccc(Cl)c1` [N-(4,5-dichloro-2-{[(3-chlorophenyl)sulfonyl]amino}phenyl)thiophene-2-sulfonamide]: the “CCR2 % Antagonism” value was determined as 90% and the pIC50 was 6.41.
For `Cc1cc(S(=O)(=O)Nc2cc(Cl)c(Cl)cc2NS(=O)(=O)c2cccs2)ccc1Br` [N-(2-{[(4-bromo-3-methylphenyl)sulfonyl]amino}-4,5-dichlorophenyl)thiophene-2-sulfonamide] the same measures were 91% and 6.33.
As to `O=S(=O)(Nc1cc(Cl)c(Cl)cc1NS(=O)(=O)c1ccc(F)cc1F)c1cccs1` [N-(4,5-dichloro-2-{[(2,4-difluorophenyl)sulfonyl]amino}phenyl)thiophene-2-sulfonamide], the “CCR2 % Antagonism” value is on record as 89% and the pIC50 was 6.35.
Turning to `O=S(=O)(Nc1cc(Cl)c(Cl)cc1NS(=O)(=O)c1cccs1)c1ccc(Cl)c(Cl)c1` [N-(4,5-dichloro-2-{[(3,4-dichlorophenyl)sulfonyl]amino}phenyl)thiophene-2-sulfonamide], the “CCR2 % Antagonism” value is on record as 79% and the pIC50 is 6.40.
